Measurements: US8993626B2, “Methods of treatment using sterculic acid” (The United States of America, as represented by the …, priority 2010, dated 2015)
Read-outs that look alike come from different tables or passages of the source.

Legend:
ARPE19 cells = assay: Phase-contrast images of cells after co-treatment with 15 μM 7KCh; format: cell-based, human; details: 1 μM fatty acid + 15 μM 7KCh, 24 hr
Source text: FIG. 8 depicts phase-contrast images of ARPE19 cells at 24 hr after sterculic acid co-treatment with 7KCh.

HUVEC = HUVEC growth inhibition assay (crystal violet); format: cell-based; details: for IC50: Homo sapiens
Method: HUVEC (1.5×10^3) are plated in a 96-well plate in […] of EBM-2 (Clonetic #CC3162). After 24 h (day 0), the test compound (100 μL) is added to each well at 2× the desired concentration (5-7 concentration levels) in EBM-2 medium. On day 0, one plate is stained with 0.5% crystal violet in 20% methanol for 10 minutes, rinsed with water, and air-dried. The remaining plates are incubated for 72 h at 37° C. After 72 h, plates are stained with 0.5% crystal violet in 20% methanol, rinsed with water, and air-dried. The stain is eluted with 1:1 solution of ethanol:0.1M sodium citrate (including day 0 plate), and absorbance is measured at 540 nm with an ELISA reader (Dynatech Laboratories). Day 0 absorbance is subtracted from the 72 h plates and data is plotted as percentage of control proliferation (vehicle treated cells). IC50 (drug concentration causing 50% inhibition) is calculated from the plotted data.

ARPE-19 cells [1] = assay: ELISA of secreted VEGF, IL-6, IL-8 in conditioned medium; format: cell-based; details: 6 μM 7KCh alone or with 1 μM fatty acid, 48 hr
Method: FIGS. 16A-16E depict the secreted protein levels of (A) VEGF, (B) IL-6, and (C) IL-8 were measure by ELISA 48 hr after treatment with 6 μM 7KCh, 1 μM sterculic acid, 1 μM stearic acid, or the combinations of 7KCh with either sterculic acid or stearic acid. Error bars indicate the standard deviations. *p<0.05 comparing to 7KCh, n=3. Two-tailed Student's t-test. The expressions of GRP78 and CHOP were shown by immunoblots (D) 24 hr or (E) 48 hr after treatment with 8 μM 7KCh, 1 μM sterculic acid, 1 μM stearic acid, or the combinations of 7KCh with either sterculic acid or stearic acid.
(§1) ARPE-19 cells were seeded in 24-well plates with 1×10^5 cells per well and allowed to recover for 16-24 hr. Once confluency reached approximately 90%, the effect of the fatty acids against 7KCh-mediated cell death was examined 24 hr after incubation in serum-free medium with 12 μM 7KCh. Fatty acids were tested at 0.1, 0.5, 1, 5 and 10 μM concentrations. The effects of the fatty acids against 7KCh-mediated inflammation and ER stress were examined by incubating cells in 1 μM fatty acids with either 8 μM 7KCh (24 hr for quantitative real-time PCR (qRT-PCR), 24 and 48 hr for immunoblot), or 6 μM 7KCh for 48 hr (for ELISA). Three individual experiments were performed for each treatment with quadruplicate measurements performed for each experiment in 24-well plates.
The levels of secreted VEGF, IL-6, IL-8, and TNF-α in conditioned medium of ARPE-19 cell cultures were measured 48 hr after treatments of 6 μM 7KCh and 1 μM fatty acids using the Quantkine ELISA kits from R&D systems (Minneapolis, Minn.). The protein levels were measured in triplicates. The ELISA results were quantified using an Envision multilable plate reader (PerkinElmer, Covina, Calif.) and presented in percentage relative to the vehicle-only control.

ARPE-19 cells [2] = assay: qRT-PCR of inflammatory cytokines and ER stress markers, 7KCh-mediated inflammation; format: cell-based
Method: FIGS. 13A-13D depict mRNA expressions of (A) VEGF, (B) IL-6, (C) GRP78, and (D) CHOP in response to 8 μM 7KCh with or without 1 μM long-chain fatty acids. Error bars indicate the standard deviations. *p<0.05 comparing to 7KCh, n=3. Two-tailed Student's t-test.
(§2) FIGS. 14A-14D depict mRNA expressions of (A) VEGF, (B) IL-1b, (C) IL-6, and (D) IL-8 in response to 8 μM 7KCh, 1 μM sterculic acid, 1 μM stearic acid, or the combinations of 7KCh with either sterculic acid or stearic acid. Error bars indicate the standard deviations. *p<0.05 comparing to 7KCh, n=4. Two-tailed Student's t-test.
as §2, with “15A-15D” for “14A-14D”, “TNF-α,” for “VEGF,”, “TGF-β1,” for “IL-1b,”, “GRP78,” for “IL-6,”, “CHOP” for “IL-8”, “n=3-4.” for “n=4.”
as §1
The RNA was extracted using RNeasy Mini Kit (Qiagen, Valencia, Calif.). The reverse transcription was performed with reagents and kits from Invitrogen. Quantification of mRNA expression was performed using the Taqman gene expression assays and the following primers (VEGFa, Hs00173626_m1; IL-1β, Hs01555413_m1; IL-6, Hs00174131_m1; IL-8, Hs00174103_m1; IκBα, Hs00153283_m1; GRP78, Hs99999174_m1; CHOP, Hs01090850_m1; NOX2, Hs00166163_m1; NOX4, Hs01558199_m1; SCD, Hs00748952 s1; TNF-α, Hs00174128_m1; TGF-β1, Hs00998133_m1; GAPD, 4352934e). GAPD expression was used as an endogenous standard. All qRT-PCR experiments were measured in triplicates in an ABI 7500 Real-Time PCR Instrument (Applied Biosystems, Foster City, Calif.). The results of each treatment were normalized and presented in percentage relative to the vehicle-only control.

For `CCCCCCCCC1=C(CCCCCCCC(=O)O)C1` [sterculic acid, 8-(2-octacyclopropen-1-yl)octanoic acid], the “cell morphological changes compared to 7KCh alone” value (ARPE19 cells) was “much less proportion of dead cell and cell debris”, the apoptosis induction (HUVEC; HUVEC) was “no apoptosis” and the IC50 (HUVEC; HUVEC, 72 h, read-out: IC50 value of the anti-proliferative effect) was roughly 11.7 µM. For the same compound, the IC50 (HUVEC; HUVEC proliferation, read-out: IC50 (drug concentration causing 50% inhibition)) was 18.6 µM, the “secreted IL-6 protein expression” value (ARPE-19 cells [1]) was 1.4 fold and the “secreted IL-8 protein expression” value (ARPE-19 cells [1]) was 1.1 fold. The “secreted VEGF protein expression” value (ARPE-19 cells [1]) was 1.1 fold, the “effect on 7KCh-mediated mRNA induction (inflammatory response)” value (ARPE-19 cells [2]; 1 μM fatty acid + 8 μM 7KCh, 24 hr, FIG. 13) was “complete inhibition” and the “effect of fatty acid alone on the mRNA expression of the cytokines” value (ARPE-19 cells [2]; 1 μM fatty acid alone, no 7KCh, FIGS. 14, 15) was “no effect”. For the same compound, the “VEGF mRNA expression” value (ARPE-19 cells [2]; 8 μM 7KCh alone or with 1 μM fatty acid, 24 hr, FIG. 13A) was “basal levels”, the “IL-6 mRNA expression” value (ARPE-19 cells [2]; 8 μM 7KCh alone or with 1 μM fatty acid, 24 hr, FIG. 13B) was “basal levels” and the “GRP78 mRNA expression” value (ARPE-19 cells [2]; 8 μM 7KCh alone or with 1 μM fatty acid, 24 hr, FIG. 13C) was “basal levels”. For the same compound, the “CHOP mRNA expression” value (ARPE-19 cells [2]; 8 μM 7KCh alone or with 1 μM fatty acid, 24 hr, FIG. 13D) was “basal levels”, the “induction of VEGF mRNA” value (ARPE-19 cells [2]; 8 μM 7KCh alone or with 1 μM fatty acid, FIG. 14A) was 2.5 fold and the “induction of IL-1β mRNA” value (ARPE-19 cells [2]; 8 μM 7KCh alone or with 1 μM fatty acid, FIG. 14B) was 3.9 fold. The “induction of IL-6 mRNA” value (ARPE-19 cells [2]; 8 μM 7KCh alone or with 1 μM fatty acid, FIG. 14C) was 5.1 fold, the “induction of IL-8 mRNA” value (ARPE-19 cells [2]; 8 μM 7KCh alone or with 1 μM fatty acid, FIG. 14D) was 1.8 fold and the “induction of TNF-α mRNA” value (ARPE-19 cells [2]; 8 μM 7KCh alone or with 1 μM fatty acid, FIG. 15A) was 1.5 fold. The “induction of TGF-β1 mRNA” value (ARPE-19 cells [2]; 8 μM 7KCh alone or with 1 μM fatty acid, FIG. 15B) was 1 fold, the “induction of GRP78 mRNA” value (ARPE-19 cells [2]; 8 μM 7KCh alone or with 1 μM fatty acid, FIG. 15C) was 1.3 fold and the “induction of CHOP mRNA” value (ARPE-19 cells [2]; 8 μM 7KCh alone or with 1 μM fatty acid, FIG. 15D) was 4.1 fold.
